Patent publication US20240300959A1, “BALASUBRAMIDE DERIVATIVE AND USE THEREOF IN PREPARATION OF MEDICINE FOR TREATING ACUTE LUNG INJURY” (Guangdong Pharmaceutical University, priority 2023, published 2024)

Tested on: mice with acute lung injury caused by intratracheal instillation of lipopolysaccharide
Test: Acute lung injury caused by lung exposure to bacterial endotoxin (intratracheal instillation of LPS)
Format: in vivo, ICR mice
Conditions: for Content of TNF-α in a lung tissue homogenate (% of Model) / Area percentage of alveolar cells (%) / Lung index (%): 6 h after intratracheal LPS; for Area percentage of alveolar cells (%): H&E lung sections; for Change multiple of COX-2 / Change multiple of IL-1β / Change multiple of IL-6 / Change multiple of TNF-α / Change multiple of iNOS: lung tissue RT-PCR; for Body weight (Day 1) / Body weight (Day 2) / Body weight (Day 3): intratracheal LPS model, in g (unit assumed)
Procedure: Grouping, administration and modeling of animals: Male ICR mice were used as experimental animals, which were randomly divided into a control group, a model group, a positive administration group and administration groups according to the body weight. The control group and the model group were administered with a solvent by intraperitoneal injection (the solvent was prepared from DMSO, Kolliphor HS15 and Saline at a ratio of 1:2:7), the positive administration group was administered with 5 mg/kg dexamethasone by intraperitoneal injection, and the administration groups were administered with (+)3C-20 at a concentration of 10 mg/kg and 50 mg/kg, respectively, by intraperitoneal injection. The dexamethasone and the (+)3C-20 were dissolved in the above solvent and were clear and transparent. The administration was continued for 3 days. 2 h after the last administration, the mice were anesthetized with 2.5% isoflurane, necks were disinfected, cortices of the necks were cut, and tracheae were separated. All other groups were administered with 50 μL of 10 mg/mL LPS (LPS dissolved in Saline) at a dose of 20 mg/kg by instillation while the control group was administered with 50 μL of Saline by intratracheal instillation (it.), and the cortices were sutured. 6 h after the instillation of LPS, the mice were sacrificed, and serum and lung tissues were taken for later use. Body weight and lung index: The mice were weighed and randomly divided on day 1 and continuously weighed for 3 days before administration. 2 h after the last administration, the mice were administered with 50 μL of […] LPS by intratracheal instillation. 6 h later, the mice were dissected, and the lungs were taken and weighed.
On day 3, 6 h after the intratracheal instillation of LPS, a part of the mice were subjected to perfusion with PBS and treated with paraformaldehyde to fix the right lobe of the lungs, another part of the mice were dissected to obtain lungs, and the lungs were frozen with liquid nitrogen for later use. The fixed right lungs were stained with hematoxylin-eosin (H&E) after dehydration, paraffin embedding and sectioning. 40 mg of the frozen lungs were cut, 300 μL of an RIPA lysis buffer was added thereto and homogenized by starting for 45 s and stopping for 15 s at a frequency of 60 Hz in 4 cycles for full lysis, and then centrifuged at 12,000 rpm at 4° C. A supernatant was taken, the protein concentration was calibrated and adjusted with a BCA protein assay kit, and then the level of an inflammatory factor TNF-α in lung tissue homogenates of various groups was detected by a commercial TNF-α ELISA kit. Results are shown in Table 10, FIG. 10-1 and FIG. 10-2.
A small amount of frozen lung tissues were taken, a Trizol lysis reagent was added thereto and fully ground, RNA was extracted according to an operation instruction of an RNA extraction kit, and the expression of inflammation related genes in the lung tissues was detected by an RT-PCR technology. Experimental results are shown in Table 11, FIG. 11-1 and FIG. 11-2.

[1] = 10 mg/kg i.p., intratracheal LPS
[2] = 50 mg/kg i.p., intratracheal LPS

O=C(CCc1ccc(C(F)(F)F)cc1)O[C@@H]1C(=O)NCCc2c([nH]c3ccccc23)[C@H]1c1ccc(C(F)(F)F)cc1 [(+)-3C-20]
Content of TNF-α in a lung tissue homogenate (% of Model) (10 mg/kg i.p.): 90.587 ± 7.374 ^ % of Model
Area percentage of alveolar cells (%) (10 mg/kg i.p.): 36.611 ± 1.64 %
Change multiple of COX-2 [1]: 2.05 ± 0.38
Change multiple of IL-1β [1]: 13.04 ± 1.24
Change multiple of IL-6 [1]: 17.12 ± 2.28
Change multiple of TNF-α [1]: 13.32 ± 0.94
Change multiple of iNOS [1]: 4.56 ± 0.4
Lung index (%) (10 mg/kg intraperitoneal 3 days): 0.656 ± 0.007%
Body weight (Day 1) (10 mg/kg intraperitoneal): 27.67 ± 0.38
Body weight (Day 2) (10 mg/kg intraperitoneal): 27.44 ± 0.43
Body weight (Day 3) (10 mg/kg intraperitoneal): 27.93 ± 0.53
Content of TNF-α in a lung tissue homogenate (% of Model) (50 mg/kg i.p.): 61.408 ± 6.525 % of Model
Area percentage of alveolar cells (%) (50 mg/kg i.p.): 32.805 ± 0.814 %
Change multiple of COX-2 [2]: 1.14 ± 0.24
Change multiple of IL-1β [2]: 11.94 ± 1.05
Change multiple of IL-6 [2]: 15.11 ± 1.58
Change multiple of TNF-α [2]: 8.56 ± 1.21
Change multiple of iNOS [2]: 3.75 ± 0.72
Lung index (%) (50 mg/kg intraperitoneal 3 days): 0.591 ± 0.011 %
Body weight (Day 1) (50 mg/kg intraperitoneal): 27.63 ± 0.48
Body weight (Day 2) (50 mg/kg intraperitoneal): 27.04 ± 0.48
Body weight (Day 3) (50 mg/kg intraperitoneal): 27 ± 0.61
pathological lung injury compared with the model group, in words (50 mg/kg, intratracheal LPS): obviously relieving pathological lung injury
